“Also recorded” adds a separate entry of the source.

The target in this test is T1, human DNA polymerase α (Homo sapiens, UniProt P09884).
T1 construct: purchased Chimerx
T1 sequence (P09884 1-1462): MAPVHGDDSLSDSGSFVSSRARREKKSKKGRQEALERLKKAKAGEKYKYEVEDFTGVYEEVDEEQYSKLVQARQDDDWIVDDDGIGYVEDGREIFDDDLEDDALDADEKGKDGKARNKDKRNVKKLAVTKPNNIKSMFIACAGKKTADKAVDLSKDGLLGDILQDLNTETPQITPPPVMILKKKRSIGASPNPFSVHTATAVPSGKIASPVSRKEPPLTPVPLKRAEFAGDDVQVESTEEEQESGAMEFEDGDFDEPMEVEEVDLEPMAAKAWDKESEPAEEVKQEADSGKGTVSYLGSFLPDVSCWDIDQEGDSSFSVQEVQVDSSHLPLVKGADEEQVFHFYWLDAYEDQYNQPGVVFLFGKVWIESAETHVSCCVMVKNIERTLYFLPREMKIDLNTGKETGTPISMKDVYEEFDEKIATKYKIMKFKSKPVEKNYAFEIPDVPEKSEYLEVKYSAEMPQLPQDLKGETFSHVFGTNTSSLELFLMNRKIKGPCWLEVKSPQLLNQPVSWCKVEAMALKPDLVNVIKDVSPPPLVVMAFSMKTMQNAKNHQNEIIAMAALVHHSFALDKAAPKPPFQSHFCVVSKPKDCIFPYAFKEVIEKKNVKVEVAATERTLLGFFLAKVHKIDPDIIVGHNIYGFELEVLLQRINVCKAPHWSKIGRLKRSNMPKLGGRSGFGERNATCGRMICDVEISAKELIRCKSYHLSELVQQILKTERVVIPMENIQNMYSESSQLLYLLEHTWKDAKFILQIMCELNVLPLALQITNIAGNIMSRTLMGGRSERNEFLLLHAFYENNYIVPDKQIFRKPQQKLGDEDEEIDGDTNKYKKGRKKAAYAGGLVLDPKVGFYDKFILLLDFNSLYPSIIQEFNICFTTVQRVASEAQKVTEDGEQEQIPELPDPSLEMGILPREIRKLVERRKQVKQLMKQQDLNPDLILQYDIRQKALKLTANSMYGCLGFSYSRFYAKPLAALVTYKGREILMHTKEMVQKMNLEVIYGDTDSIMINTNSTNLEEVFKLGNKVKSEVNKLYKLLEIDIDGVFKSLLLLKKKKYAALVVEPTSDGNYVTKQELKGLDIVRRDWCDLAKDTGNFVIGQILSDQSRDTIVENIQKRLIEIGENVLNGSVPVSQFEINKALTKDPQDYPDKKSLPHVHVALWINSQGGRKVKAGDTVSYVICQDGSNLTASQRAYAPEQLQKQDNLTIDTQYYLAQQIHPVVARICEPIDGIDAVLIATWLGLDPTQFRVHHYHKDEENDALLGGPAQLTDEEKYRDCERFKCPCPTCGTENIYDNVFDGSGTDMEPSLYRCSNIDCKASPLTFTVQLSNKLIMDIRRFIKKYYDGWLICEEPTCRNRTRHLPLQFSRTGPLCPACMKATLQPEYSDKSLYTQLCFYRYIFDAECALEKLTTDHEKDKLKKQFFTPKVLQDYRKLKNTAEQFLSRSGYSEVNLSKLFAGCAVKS
The test can be described thus: Primer extension assay using human DNA polymerase α. The test is classed as biochemical. The note with it: 60 min, 2 U, 37 °C. The source says:
Encouraged by the previously obtained results that γ-phosphate-modified-d4TDPs 3, γ-monoalkylated d4TTP derivatives as well as d4TDP were accepted as substrates by HIV-RT,[49],[50],[55],[59]−[61] δ-dialkylated d4T tetraphosphate analogues 4,5, δ-monoalkylated d4T tetraphosphate analogues 20 and 24 and d4T4P were investigated in primer extension assays in the presence of HIV-RT or the three different human DNA polymerases α, β and γ. D4TTP (for the compounds 4–9) and the natural thymidine triphosphate (TTP) were used as reference compounds.
Figure 6 Primer extension assay using HIV-RT (A), human polymerases α (B), β (C), and γ (D). (Figure 6A). Primer extension assay using HIV-RT (30 min, 6U). Lane 1: (+) dATP, dCTP, dGTP, and TTP with HIV-RT. Lane 2: (−) dATP, dCTP, dGTP, and TTP without HIV-RT. Lane 3: TTP. […] Lane 5: δ-(C4; C18)-d4T4P 4d. […] Lane 7: δ-(C18)-d4T4P 20. Lane 8: δ-C-(C18)-d4T4P 24. Lane 9: d4T4P. Lane 10: d4TTP. Lane 11: d4TDP. HIV-RT assay reaction conditions: 50 mM Tris–HCl (pH 8.6), 10 mM MgCl2, 40 mM KCl, 250 μM dNTPs, HIV-RT (6 U), 0.20 μM DNA hybrid, primer-template-hybrid 0.32 mM in a reaction volume of 10 μL, incubated at 37 °C for 0.5 h, 80 °C for 7 min. Primer extension assays: 50 mA, 45 w for 4 h. (Figure 6B). For human DNA polymerase α assay (60 min, 2 U): Lane 1: (+) dATP, dCTP, dGTP, and TTP with human polymerase α. Lane 2: (−) dATP, dCTP, dGTP, and TTP without human polymerase α. Lane 3: TTP. […] Lane 5: δ-(C4; C18)-d4T4P 4d. […] Lane 7: δ-(C18)-d4T4P 20. Lane 8: δ-C-(C18)-d4T4P 24. Lane 9: d4T4P. Lane 10: d4TTP. Human DNA polymerase α assay conditions: 60 mM Tris–HCl (pH 8), 5 mM Mg(OAc)2, 100 mM KCl, 1.0 mM dithiothreitol, 0.1 mM spermine, 0.01% (w/v) bovine serum albumin, 250 μM dNTPs, 2 U human polymerase α, 0.20 μM DNA hybrid, and primer-template-hybrid 0.32 mM in a reaction volume of 10 μL, incubated at 37 °C for 1 h, 80 °C for 7 min. Primer extension assays: 50 mA, 45 w for 3 h. (Figure 6C). For human DNA polymerase β assay (60 min, 2 U): Lane 1: (+) dATP, dCTP, dGTP, and TTP with human polymerase β. […]

Take `Cc1cn([C@H]2C=C[C@@H](COP(=O)(O)OP(=O)(O)OP(=O)(O)OP(=O)(O)O)O2)c(=O)[nH]c1=O` [d4T4P, 2′,3′-didehydro-2′,3′-dideoxythymidine-5′-tetraphosphate]: the “substrate for human DNA polymerase α (primer extension)” value (“substrate for human DNA polymerase α” for short) is on record as “nonsubstrates; also recorded: not a substrate”.

Regarding `CCCCCCCCCCCCCCCCCCOP(=O)(O)OP(=O)(O)OP(=O)(O)OP(=O)(O)OC[C@@H]1C=C[C@H](n2cc(C)c(=O)[nH]c2=O)O1` [compound 20, δ-(Alkyl-C18)-d4T4P], the “substrate for human DNA polymerase α” value is “nonsubstrates”.

For `CCCCCCCCCCCCCCCCCCP(=O)(O)OP(=O)(O)OP(=O)(O)OP(=O)(O)OC[C@@H]1C=C[C@H](n2cc(C)c(=O)[nH]c2=O)O1` [compound 24, δ-C-(Alkyl-C18)-d4T4P], the “substrate for human DNA polymerase α” value is on record as “nonsubstrates”.

The values above are taken from publication PMC10895676, “Antiviral Activity of Lipophilic Nucleoside Tetraphosphate Compounds” (Journal of Medicinal Chemistry, 2024).
